Experimental data as given in patent US20240174625A1, “COMPOSITIONS AND METHODS FOR TREATING TAUOPATHIES” (The Regents of the University of California, priority 2021, published 2024).

Tests used:
[1] = target: T1, NPEPPS (Homo sapiens, UniProt P55786); experiment: Cellular thermal shift assay (CETSA) in HEK293T cell lysates; assay type: binding; conditions: concentration-dependent
T1 construct: endogenous in cells; host or cells: HEK293T
Method: Cellular thermal shift analysis (CETSA) was conducted at Pelago Bioscience. Briefly, HEK293T cells were harvested and suspended in an experimental Buffer B (20 mM HEPES, 138 mM NaCl, 5 mM KCl, 2 mM CaCl2), 1 mM MgCl2, pH7.4) at a density of 4×10^7 cells/ml. Cell suspension was lysed by three rounds of freeze-thaw cycles with liquid nitrogen and clarified at 20,000 g for 20 min at 4° C. Compounds diluted to 2× final concentration (final solution contains 1% DMSO) in Buffer B were added to equal volume of clarified cell lysates and incubated at 37° C. for 30 min with continuous rotation. 1% DMSO was used as a negative control in parallel. The treated cell lysates were then divided into 60 μl aliquots and subjected to a 12-step heat challenge between 50° C. and 62° C. for 3 min. For the concentration-dependent analyses, clarified cell lysates in 30 aliquots were mixed with an equal volume of compounds or DMSO in Buffer B at 2× intended compound concentration and incubated at 37° C. for 30 min with continuous rotation. JMM001-treated lysates were then heat challenged at 59° C. as determined from its corresponding cellular thermal shift curve. All treated lysates were immediately centrifugated at 20,000 g for 20 min at 4° C. prior to immunoblotting analysis. […] The obtained intensities were plotted as the luminescence count normalized to a relevant temperature or control count as specified.

[2] = target: Recombinant human (rh) NPEPPS protein (Homo sapiens, UniProt P55786); experiment: Cell-free thermal shift (protein stability) assay; assay type: binding; conditions: concentration-dependent
Chain of Recombinant human (rh) NPEPPS protein (P55786 whole entry): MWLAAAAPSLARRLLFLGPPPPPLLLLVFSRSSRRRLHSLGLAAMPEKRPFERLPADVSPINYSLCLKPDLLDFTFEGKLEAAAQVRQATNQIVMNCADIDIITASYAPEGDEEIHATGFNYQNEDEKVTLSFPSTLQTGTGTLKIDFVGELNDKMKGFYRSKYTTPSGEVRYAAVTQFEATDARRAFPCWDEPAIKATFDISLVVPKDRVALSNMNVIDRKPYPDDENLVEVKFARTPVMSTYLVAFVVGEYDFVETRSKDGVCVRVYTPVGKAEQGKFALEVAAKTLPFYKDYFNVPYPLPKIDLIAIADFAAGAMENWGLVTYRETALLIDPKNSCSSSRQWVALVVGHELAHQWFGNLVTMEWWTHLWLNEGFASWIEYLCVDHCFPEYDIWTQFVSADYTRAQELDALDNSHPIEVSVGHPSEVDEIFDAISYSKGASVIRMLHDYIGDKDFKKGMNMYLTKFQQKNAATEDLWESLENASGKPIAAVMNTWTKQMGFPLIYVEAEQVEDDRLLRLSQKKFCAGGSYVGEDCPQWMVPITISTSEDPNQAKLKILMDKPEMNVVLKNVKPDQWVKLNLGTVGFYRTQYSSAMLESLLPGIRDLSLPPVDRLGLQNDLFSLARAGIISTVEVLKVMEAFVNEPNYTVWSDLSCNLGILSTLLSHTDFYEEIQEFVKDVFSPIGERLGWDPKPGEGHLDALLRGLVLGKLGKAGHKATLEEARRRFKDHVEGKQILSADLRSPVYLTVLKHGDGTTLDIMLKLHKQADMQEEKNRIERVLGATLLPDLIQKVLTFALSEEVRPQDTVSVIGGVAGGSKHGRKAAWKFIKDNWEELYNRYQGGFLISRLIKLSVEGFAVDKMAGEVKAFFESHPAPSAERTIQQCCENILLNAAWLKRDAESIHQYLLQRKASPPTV
Method: Cell-free thermal shift assay: Recombinant human (rh) NPEPPS protein was diluted in Buffer A (20 mM Tris, 137 mM NaCl, pH 7.5) to a final concentration of 1.25 μM and added to a pre-chilled 384-well microplate (Biorad HSR4801). JMM001, dimethyl sulfoxide (DMSO, Sigma D2650), or NPEPPS inhibitor puromycin dihydrochloride (Sigma P8833) in 1 μl was then added to each well, mixed with gentle aspiration, and incubated with rhNPEPPS for 3 min on ice. SYPRO Orange (Invitrogen S6651) was diluted to 200× concentration in Buffer A and added to each well achieving a final dilution of 1:20, mixed with gentle aspiration. The final assay volume was 20 μl. The plate was sealed followed by a brief spin-down. The samples were analyzed on a Real-time PCR system (Roche LightCycler 480) from 20° C. to 85° C. at a continuous acquisition rate of 5 measurements/° C. and measured at excitation/emission wavelengths of 533/580 nm. Melting temperature is calculated as the lowest derivative of the fluorescence signal as a function of the temperature as previously described^7,18.

T1 sequence (P55786 whole entry): as above

thermal shift of NPEPPS [1]: significant thermal shift
Structure (SMILES): COc1ccc(CNc2nsc3ccccc23)cc1OC [JMM001]
melting temperature of rhNPEPPS [2]: significant, concentration-dependent increases in melting temperature
